Assay results from patent publication US8362000B2, “Azetidinyl diamides as monoacylglycerol lipase inhibitors” (Janssen Pharmaceutica NV, priority 2009, dated 2013).
Residue numbers refer to the chain shown, from its start. Read-outs that look alike come from different tables or passages of the source.

Assays:
[1] = tested on: CFA-induced paw radiant heat hypersensitivity; assay: CFA-induced paw radiant heat hypersensitivity; format: in vivo, rat; settings: Rattus norvegicus, po, HPβCD; for inhibition in vivo at 10 mg/kg: 5 h, 10 mg/kg p.o., last time point 300 min; for inhibition in vivo at 30 mg/kg: 30 mg/kg p.o., last time point 180 or 300 min
Protocol: Each rat was placed in a test chamber on a warm glass surface and allowed to acclimate for approximately 10 min. A radiant thermal stimulus (beam of light) was then focused through the glass onto the plantar surface of each hind paw in turn. The thermal stimulus was automatically shut off by a photoelectric relay when the paw was moved or when the cut-off time was reached (20 sec for radiant heat at ˜5 amps). An initial (baseline) response latency to the thermal stimulus was recorded for each animal prior to the injection of complete Freund's adjuvant (CFA). […] Immediately following the post-CFA latency assessment, the indicated test compound or vehicle was administered orally.
The percent reversal (% R) of hypersensitivity was calculated in one of two different ways: 1) using group mean values or 2) using individual animal values. More specifically:
Method 2. For some compounds, the % R of hypersensitivity was calculated separately for each animal according to the following formula: % reversal=[(individual treatment response−individual CFA response)/(individual baseline response−individual CFA response)]×100. Results are given as a mean of the maximum % reversal values calculated for each individual animal.

MGL = biological target: T1, MGL (Rattus norvegicus, UniProt Q8R431); assay: 2-AG accumulation assay in rat brain homogenate; format: biochemical; settings: rat brain homogenate; compound 1 μM; 2-AG accumulation as percent of vehicle; read-out: Rat Brain 2AG % VehCntrl (%) @ 1 μM
T1 construct: one g rat brain was homogenized using a Polytron homogenizer; from tissue; host or cells: rat brain homogenate
T1 sequence (Q8R431 1-303): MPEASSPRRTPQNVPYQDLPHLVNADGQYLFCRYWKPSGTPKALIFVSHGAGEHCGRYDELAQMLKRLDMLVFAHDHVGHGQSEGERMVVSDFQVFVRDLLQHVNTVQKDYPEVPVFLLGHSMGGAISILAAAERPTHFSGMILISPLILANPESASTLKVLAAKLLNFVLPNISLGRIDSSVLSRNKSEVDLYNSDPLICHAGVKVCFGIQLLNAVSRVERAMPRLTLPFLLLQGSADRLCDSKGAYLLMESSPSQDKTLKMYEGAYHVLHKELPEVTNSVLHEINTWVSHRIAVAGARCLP

mutant MGL = biological target: T2, mutant MGL (Homo sapiens, UniProt Q99685, L169S/L176S); assay: MGL ThermoFluor assay - mutant; format: binding
T2 sequence (Q99685 1-303 L169S/L176S): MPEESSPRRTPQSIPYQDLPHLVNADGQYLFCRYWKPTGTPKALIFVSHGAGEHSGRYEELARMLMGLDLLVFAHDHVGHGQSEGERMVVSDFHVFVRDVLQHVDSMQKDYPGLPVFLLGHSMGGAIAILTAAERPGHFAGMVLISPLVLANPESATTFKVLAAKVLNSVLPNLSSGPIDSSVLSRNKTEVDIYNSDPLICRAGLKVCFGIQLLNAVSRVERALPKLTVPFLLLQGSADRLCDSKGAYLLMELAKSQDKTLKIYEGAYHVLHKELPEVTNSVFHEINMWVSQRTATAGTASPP

[2] = biological target: T3, purified wild type MGL (wt-MGLL 6H-11-313) (Homo sapiens, UniProt Q99685)
T3 sequence (Q99685 1-303): T2 sequence (Q99685 1-303 L169S/L176S) with S169L, S176L

[3] = group mean values, read-out: CFA thermal hypersensitivity Method 1: peak % reversal
[4] = individual animal values, read-out: CFA thermal hypersensitivity Method 2: peak % reversal
[5] = ThermoFluor thermal stability binding assay, read-out: MGL mutant ThermoFluor Kd
[6] = ThermoFluor concentration-response, read-out: MGL mutant ThermoFluor Kd

| Structure (SMILES) | IC50 [2] | Kd (mutant MGL; [6]) | inhibition in vivo at 30 mg/kg [1, 3] | inhibition in vivo at 30 mg/kg [1, 4] | other results |
| --- | --- | --- | --- | --- | --- |
| O=C(c1ccccc1)N1CCN(C2CN(C(=O)c3ccc4c(ccn4-c4ccc(C(F)(F)F)cc4)c3)C2)CC1 [Cpd 126, 5-({3-[4-(Phenylcarbonyl)piperazin-1-yl]azetidin-1-yl}carbonyl)-1-[4-(trifluoromethyl)phenyl]-1H-indole] | – | – | 51% | 79.5% | inhibition in vivo at 10 mg/kg [1, 3]: 40.8%; inhibition in vivo at 10 mg/kg [1, 4]: 40.4% |
| O=C(c1ccc2oc(-c3ccccc3)nc2c1)N1CC(N2CCN(C(=O)c3nccs3)CC2)C1 [Cpd 317, 2-Phenyl-5-({3-[4-(1,3-thiazol-2-ylcarbonyl)piperazin-1-yl]azetidin-1-yl}carbonyl)-1,3-benzoxazole] | – | – | 43% | – | 2-AG accumulation, % of vehicle control at 1 µM (MGL): 417% |
| O=C(c1ccc2nc(-c3ccccc3)oc2c1)N1CC(N2CCN(C(=O)c3nccs3)CC2)C1 [Cpd 318, 2-Phenyl-6-({3-[4-(1,3-thiazol-2-ylcarbonyl)piperazin-1-yl]azetidin-1-yl}carbonyl)-1,3-benzoxazole] | – | – | 44.7% | – | – |
| O=C(c1cscn1)N1CCN(C2CN(C(=O)c3sc4cc(C(F)(F)F)ccc4c3Cl)C2)CC1 [Cpd 335, 1-(1-{[3-Chloro-6-(trifluoromethyl)-1-benzothiophen-2-yl]carbonyl}azetidin-3-yl)-4-(1,3-thiazol-4-ylcarbonyl)piperazine] | – | – | 108% | 135% | – |
| O=C(c1ccc2c(ccn2-c2ccc(F)cc2)c1)N1CC(N2CCN(C(=O)c3nccs3)CC2)C1 [Cpd 487, 1-(4-Fluorophenyl)-5-({3-[4-(1,3-thiazol-2-ylcarbonyl)piperazin-1-yl]azetidin-1-yl}carbonyl)-1H-indole] | – | – | 109% | 166% | – |
| O=C(c1ccccc1)N1CCN(C2CN(C(=O)c3ccc4c(ccn4-c4ccc(F)cc4)c3)C2)CC1 [Cpd 567, 1-(4-Fluorophenyl)-5-({3-[4-(phenylcarbonyl)piperazin-1-yl]azetidin-1-yl}carbonyl)-1H-indole] | – | – | 63.1% | – | – |
| Cc1c(C(=O)N2CC(N3CCN(C(=O)c4nccs4)CC3)C2)sc2cc(C(F)(F)F)ccc12 [Cpd 899, 1-(1-{[3-Methyl-6-(trifluoromethyl)-1-benzothiophen-2-yl]carbonyl}azetidin-3-yl)-4-(1,3-thiazol-2-ylcarbonyl)piperazine] | < 5 nM | – | 80.1% | – | – |
| Cc1cn(-c2ccc(F)cc2)c2ccc(C(=O)N3CC(N4CCN(C(=O)c5nccs5)CC4)C3)cc12 [Cpd 1088, 1-(4-Fluorophenyl)-3-methyl-5-({3-[4-(1,3-thiazol-2-ylcarbonyl)piperazin-1-yl]azetidin-1-yl}carbonyl)-1H-indole] | – | – | 35.3% | – | 2-AG accumulation, % of vehicle control at 1 µM (MGL): 760%; Kd (mutant MGL; [5]): 0.001 µM |
| O=C(c1ccc2c(cnn2-c2ccc(F)c(F)c2)c1)N1CC(N2CCN(C(=O)c3nccs3)CC2)C1 [Cpd 1106, 1-(3,4-Difluorophenyl)-5-({3-[4-(1,3-thiazol-2-ylcarbonyl)piperazin-1-yl]azetidin-1-yl}carbonyl)-1H-indazole] | – | – | 45% | – | 2-AG accumulation, % of vehicle control at 1 µM (MGL): 784% |
| O=C(c1ccc2nc(-c3ccccc3)oc2c1)N1CC(N2CCN(C(=O)c3cscn3)CC2)C1 [Cpd 1141, 2-Phenyl-6-({3-[4-(1,3-thiazol-4-ylcarbonyl)piperazin-1-yl]azetidin-1-yl}carbonyl)-1,3-benzoxazole] | – | – | 5.7% | – | – |
| O=C(c1ccc2c(ccn2-c2ncccn2)c1)N1CC(N2CCN(C(=O)c3nccs3)CC2)C1 [Cpd 1174, 1-Pyrimidin-2-yl-5-({3-[4-(1,3-thiazol-2-ylcarbonyl)piperazin-1-yl]azetidin-1-yl}carbonyl)-1H-indole] | 66 nM | 0.015 µM | 13.6% | – | – |
| O=C(c1ccc2c(ccn2-c2ccc(C(F)(F)F)cc2)c1)N1CC(N2CCN(C(=O)c3nccs3)CC2)C1 [Cpd 1357, 5-({3-[4-(1,3-Thiazol-2-ylcarbonyl)piperazin-1-yl]azetidin-1-yl}carbonyl)-1-[4-(trifluoromethyl)phenyl]-1H-indole] | < 5 nM | 0.002 µM | 51% | 46.1% | – |

Continued, in another order:

| IC50 [2] | Kd (mutant MGL; [6]) | Structure (SMILES) | inhibition in vivo at 30 mg/kg [1, 3] | inhibition in vivo at 30 mg/kg [1, 4] | other results |
| --- | --- | --- | --- | --- | --- |
| < 5 nM | – | O=C(c1nccs1)N1CCN(C2CN(C(=O)c3sc4cc(Br)ccc4c3Cl)C2)CC1 [Cpd 326, 1-{1-[(6-Bromo-3-chloro-1-benzothiophen-2-yl)carbonyl]azetidin-3-3yl}-4-(1,3-thiazol-2-ylcarbonyl)piperazine] | 17.3% | 17.5% | Kd (mutant MGL; [5]): 0.0004 µM |
| < 5 nM | – | O=C(c1nccs1)N1CCN(C2CN(C(=O)c3sc4cc(C(F)(F)F)ccc4c3F)C2)CC1 [Cpd 895, 1-(1-{[3-Fluoro-6-(trifluoromethyl)-1-benzothiophen-2-yl]carbonyl}azetidin-3-yl)-4-(1,3-thiazol-2-ylcarbonyl)piperazine] | 23.4% | – | – |
| 5 nM | – | Cc1cn(-c2ccccc2)c2ccc(C(=O)N3CC(N4CCN(C(=O)c5nccs5)CC4)C3)cc12 [Cpd 1054] | 27.6% | – | Kd (mutant MGL; [5]): 0.001 µM; Kd (mutant MGL; ThermoFluor, compound concentration measured by qNMR, read-out: MGL mutant ThermoFluor qKd (μM) (using qNMR conc.)): 0.001 µM |
| 19 nM | 0.037 µM | O=C(c1ccc2nc(-c3ccccc3)sc2c1)N1CC(N2CCN(C(=O)c3nccs3)CC2)C1 [Cpd 1125, 2-Phenyl-6-({3-[4-(1,3-thiazol-2-ylcarbonyl)piperazin-1-yl]azetidin-1-yl}carbonyl)-1,3-benzothiazole] | 64.5% | 90.3% | – |
| 23 nM | 0.002 µM | Cn1cc(-c2ccccc2)c2ccc(C(=O)N3CC(N4CCN(C(=O)c5nccs5)CC4)C3)cc21 [Cpd 1132, 1-Methyl-3-phenyl-6-({3-[4-(1,3-thiazol-2-ylcarbonyl)piperazin-1-yl]azetidin-1-yl}carbonyl)-1H-indole] | 0% | – | – |
| < 5 nM | 0.001 µM | O=C(c1ccc2c(-c3cccc(C(F)(F)F)c3)c[nH]c2c1)N1CC(N2CCN(C(=O)c3nccs3)CC2)C1 [Cpd 1341, 6-({3-[4-(1,3-Thiazol-2-ylcarbonyl)piperazin-1-yl]azetidin-1-yl}carbonyl)-3-[3-(trifluoromethyl)phenyl]-1H-indole] | 7.5% | – | – |
| < 5 nM | 0.007 µM | O=C(c1ccc2c(ccn2-c2ccc(F)cc2)c1)N1CC(N2CCN(C(=O)c3cscn3)CC2)C1 [Cpd 1358, 1-(4-Fluorophenyl)-5-({3-[4-(1,3-thiazol-4-ylcarbonyl)piperazin-1-yl]azetidin-1-yl}carbonyl)-1H-indole] | 25.4% | – | – |
| < 5 nM | 0.008 µM | O=C(c1ccc2c(ccn2-c2ccc(C(F)(F)F)cc2)c1)N1CC(N2CCN(C(=O)c3cscn3)CC2)C1 [Cpd 1359, 5-({3-[4-(1,3-Thiazol-4-ylcarbonyl)piperazin-1-yl]azetidin-1-yl}carbonyl)-1-[4-(trifluoromethyl)phenyl]-1H-indole] | 5.1% | 12.7% | – |
